{"source": "patent US12497393B2", "about": "“β-lactam compound, use thereof and preparation method therefor” (priority 2020, dated 2025)", "assay_in_all_cases": "Antibacterial activity MIC assay (two-fold dilution agar plating)", "format_in_all_cases": "cell-based", "key": {"[1]": {"tested_on": "Providencia rettgeri", "description": "(§1) Antibacterial Activity-Evaluating Method (MIC Assay)\n(§2) In this study, the compounds of the present invention were tested for their antibacterial activities by using two-fold dilution agar plating method and Denley Multipoint Inoculator A400 according to the guidelines of the CLSI/NCCLS standard. The tested strains were amplified by hydrolyzed casein peptone (Mueller-Hinton Agar) broth and Brain and Heart Infusion. The strains used in this study were bacterial strains that were purchased from ATCC or clinically isolated in Chinese hospitals. Aztreonam, polymyxin or levofloxacin was used as positive control. The drugs were diluted with hydrolyzed casein peptone broth to the desired concentrations including 128.0, 64.0, 32.0, 16.0, 8.0, 4.0, 2.0, 1.0, 0.5, 0.25, 0.125, 0.06 and 0.03 μg/mL, and then placed respectively into each well and mixed thoroughly. After inoculation, the tested strains were incubated for 18 hours at a constant temperature of 35° C., and their growth levels were observed. The drug concentration with no microbial growth in the well was recorded as the lowest Minimal Inhibitory Concentration (MIC)."}, "[2]": {"tested_on": "Citrobacter freundii", "conditions": "Citrobacter freundii ATCC 43864", "description": "as §1, §2"}, "[3]": {"tested_on": "Shigella flexneri", "conditions": "Shigella flexneri ATCC 12022", "description": "as §1, §2"}, "[4]": {"tested_on": "Enterobacter aerogenes", "conditions": "Enterobacter aerogenes ATCC 13048", "description": "as §1, §2"}, "[5]": {"tested_on": "Serratia marcescens", "conditions": "Serratia marcescens ATCC 21074", "description": "as §1, §2"}, "[6]": {"tested_on": "Klebsiella Pneumoniae", "conditions": "for MIC: Klebsiella pneumoniae, read-out: Minimal Inhibitory Concentration (MIC)", "description": "as §1, §2"}, "[7]": {"tested_on": "Proteus mirabilis", "description": "as §1, §2"}, "[8]": {"tested_on": "Pseudomonas aeruginosa", "conditions": "for MIC: read-out: Minimal Inhibitory Concentration (MIC)", "description": "as §1, §2"}, "[9]": {"tested_on": "Escherichia coli", "conditions": "for MIC: Escherichia coli, read-out: Minimal Inhibitory Concentration (MIC)", "description": "as §1, §2"}, "[10]": {"tested_on": "Acinetobacter baumannii", "conditions": "for MIC: Acinetobacter baumannii, read-out: Minimal Inhibitory Concentration (MIC)", "description": "as §1, §2"}, "[11]": {"tested_on": "Stenotrophomonas maltophilia", "conditions": "Stenotrophomonas maltophilia ATCC 13636", "description": "as §1, §2"}, "[12]": {"tested_on": "Proteus vulgaris", "description": "as §1, §2"}, "[13]": {"tested_on": "Enterobacter cloacae", "conditions": "for MIC: read-out: Minimal Inhibitory Concentration (MIC)", "description": "as §1, §2"}, "[14]": {"tested_on": "Salmonella typhi", "description": "as §1, §2"}, "[15]": {"conditions": "Klebsiella Pneumoniae 09-20, mcr-1(+)"}, "[16]": {"conditions": "Klebsiella Pneumoniae 16-2, ESBLs(−)"}, "[17]": {"conditions": "Klebsiella Pneumoniae 16-14, ESBLs(+)"}, "[18]": {"conditions": "Escherichia coli 08-85, mcr-1(+)"}, "[19]": {"conditions": "Escherichia coli 13-43, mcr-1(+)"}, "[20]": {"conditions": "Escherichia coli 13-66, mcr-1(+)"}, "[21]": {"conditions": "Escherichia coli 16-1, ESBLs(+)"}, "[22]": {"conditions": "Escherichia coli 16-7, ESBLs(−)"}, "[23]": {"conditions": "Escherichia coli 17-R28, CRE, NDM-1(+)"}, "[24]": {"conditions": "Escherichia coli CDC1001728, NDM-1(+)"}, "[25]": {"conditions": "Enterobacter cloacae CDC1000654"}}, "note": "Read-outs that look alike come from different tables or passages of the source.", "data": [{"smiles": "CC1(C)[C@H](NC(=O)/C(=N\\OC2(C(=O)O)CC2)c2nsc(N)n2)C(=O)N1OS(=O)(=O)O", "note": "[Compound A-6]", "values": [{"measurement": "Minimal Inhibitory Concentration (MIC)", "setting": "[1]; Providencia rettgeri ATCC 31052", "value": "≤0.03", "unit": "µg/mL"}, {"measurement": "Minimal Inhibitory Concentration (MIC)", "setting": "[2]", "value": 0.25, "unit": "µg/mL"}, {"measurement": "Minimal Inhibitory Concentration (MIC)", "setting": "[3]", "value": 0.06, "unit": "µg/mL"}, {"measurement": "Minimal Inhibitory Concentration (MIC)", "setting": "[4]", "value": 1, "unit": "µg/mL"}, {"measurement": "Minimal Inhibitory Concentration (MIC)", "setting": "[5]", "value": 1, "unit": "µg/mL"}, {"measurement": "Minimal Inhibitory Concentration (MIC)", "setting": "[6]; [15]", "value": 2, "unit": "µg/mL"}, {"measurement": "Minimal Inhibitory Concentration (MIC)", "setting": "[6]; [16]", "value": 0.5, "unit": "µg/mL"}, {"measurement": "Minimal Inhibitory Concentration (MIC)", "setting": "[6]; [17]", "value": 4, "unit": "µg/mL"}, {"measurement": "Minimal Inhibitory Concentration (MIC)", "setting": "[6]; Klebsiella Pneumoniae ATCC 700603, ESBLs(+)", "value": 64, "unit": "µg/mL"}, {"measurement": "Minimal Inhibitory Concentration (MIC)", "setting": "[6]; Klebsiella Pneumoniae ATCC BAA-2146, NDM-1(+)", "value": 32, "unit": "µg/mL"}, {"measurement": "Minimal Inhibitory Concentration (MIC)", "setting": "[7]; Proteus mirabilis ATCC 49565", "value": 1, "unit": "µg/mL"}, {"measurement": "Minimal Inhibitory Concentration (MIC)", "setting": "[8]; Pseudomonas aeruginosa 16-11", "value": 16, "unit": "µg/mL"}, {"measurement": "Minimal Inhibitory Concentration (MIC)", "setting": "[8]; Pseudomonas aeruginosa ATCC 27853", "value": 16, "unit": "µg/mL"}, {"measurement": "Minimal Inhibitory Concentration (MIC)", "setting": "[8]; Pseudomonas aeruginosa PAO1", "value": 8, "unit": "µg/mL"}, {"measurement": "Minimal Inhibitory Concentration (MIC)", "setting": "[9]; [18]", "value": 4, "unit": "µg/mL"}, {"measurement": "Minimal Inhibitory Concentration (MIC)", "setting": "[9]; [19]", "value": 4, "unit": "µg/mL"}, {"measurement": "Minimal Inhibitory Concentration (MIC)", "setting": "[9]; [20]", "value": 4, "unit": "µg/mL"}, {"measurement": "Minimal Inhibitory Concentration (MIC)", "setting": "[9]; [21]", "value": 0.5, "unit": "µg/mL"}, {"measurement": "Minimal Inhibitory Concentration (MIC)", "setting": "[9]; [22]", "value": 0.5, "unit": "µg/mL"}, {"measurement": "Minimal Inhibitory Concentration (MIC)", "setting": "[9]; [23]", "value": ">64", "unit": "µg/mL"}, {"measurement": "Minimal Inhibitory Concentration (MIC)", "setting": "[9]; Escherichia coli ATCC 25922, ESBLs(−)", "value": 0.5, "unit": "µg/mL"}, {"measurement": "Minimal Inhibitory Concentration (MIC)", "setting": "[9]; Escherichia coli ATCC 35218, ESBLs(+)", "value": 0.25, "unit": "µg/mL"}, {"measurement": "Minimal Inhibitory Concentration (MIC)", "setting": "[9]; [24]", "value": 4, "unit": "µg/mL"}, {"measurement": "Minimal Inhibitory Concentration (MIC)", "setting": "[10]; Acinetobacter baumannii 16-16", "value": ">64", "unit": "µg/mL"}, {"measurement": "Minimal Inhibitory Concentration (MIC)", "setting": "[10]; Acinetobacter baumannii 16-33", "value": 16, "unit": "µg/mL"}, {"measurement": "Minimal Inhibitory Concentration (MIC)", "setting": "[10]; Acinetobacter baumannii ATCC 19606", "value": 16, "unit": "µg/mL"}, {"measurement": "Minimal Inhibitory Concentration (MIC)", "setting": "[11]", "value": 32, "unit": "µg/mL"}, {"measurement": "Minimal Inhibitory Concentration (MIC)", "setting": "[12]; Proteus vulgaris ATCC 29905", "value": "≤0.03", "unit": "µg/mL"}, {"measurement": "Minimal Inhibitory Concentration (MIC)", "setting": "[13]; Enterobacter cloacae ATCC 43560", "value": 0.5, "unit": "µg/mL"}, {"measurement": "Minimal Inhibitory Concentration (MIC)", "setting": "[13]; [25]", "value": 64, "unit": "µg/mL"}, {"measurement": "Minimal Inhibitory Concentration (MIC)", "setting": "[14]; Salmonella typhi H901", "value": 0.5, "unit": "µg/mL"}]}, {"smiles": "CC1(C)[C@H](NC(=O)/C(=N\\OC2(C(=O)O)CCCCC2)c2csc(N)n2)C(=O)N1OS(=O)(=O)O", "note": "[Compound A-7]", "values": [{"measurement": "MIC", "setting": "[1]; Providencia rettgeri, ATCC31052, Providencia rettgeri ATCC 31052, read-out: Minimal Inhibitory Concentration (MIC)", "value": 0.25, "unit": "µg/mL"}, {"measurement": "MIC", "setting": "[2]; ATCC43864, read-out: Minimal Inhibitory Concentration (MIC)", "value": 2, "unit": "µg/mL"}, {"measurement": "MIC", "setting": "[3]; ATCC12022, read-out: Minimal Inhibitory Concentration (MIC)", "value": 2, "unit": "µg/mL"}, {"measurement": "MIC", "setting": "[4]; Klebsiella aerogenes, ATCC13048, read-out: Minimal Inhibitory Concentration (MIC)", "value": 4, "unit": "µg/mL"}, {"measurement": "MIC", "setting": "[5]; ATCC21074, read-out: Minimal Inhibitory Concentration (MIC)", "value": 2, "unit": "µg/mL"}, {"measurement": "MIC", "setting": "[6]; ATCC700603, Klebsiella Pneumoniae ATCC 700603, ESBLs(+)", "value": 8, "unit": "µg/mL"}, {"measurement": "MIC", "setting": "[6]; ATCCBAA2146, Klebsiella Pneumoniae ATCC BAA-2146, NDM-1(+)", "value": 8, "unit": "µg/mL"}, {"measurement": "MIC", "setting": "[6]; [15]", "value": 2, "unit": "µg/mL"}, {"measurement": "MIC", "setting": "[6]; [16]", "value": 2, "unit": "µg/mL"}, {"measurement": "MIC", "setting": "[6]; [17]", "value": 2, "unit": "µg/mL"}, {"measurement": "MIC", "setting": "[6]; Klebsiella Pneumoniae 17-R27, CRE", "value": 4, "unit": "µg/mL"}, {"measurement": "MIC", "setting": "[7]; Proteus mirabilis, ATCC49565, Proteus mirabilis ATCC 49565, read-out: Minimal Inhibitory Concentration (MIC)", "value": 0.12, "unit": "µg/mL"}, {"measurement": "MIC", "setting": "[8]; ATCC27853, Pseudomonas aeruginosa ATCC 27853", "value": 32, "unit": "µg/mL"}, {"measurement": "MIC", "setting": "[8]; Pseudomonas aeruginosa 16-11", "value": "> 64", "unit": "µg/mL"}, {"measurement": "MIC", "setting": "[8]; Pseudomonas aeruginosa PAO1", "value": 32, "unit": "µg/mL"}, {"measurement": "MIC", "setting": "[9]; ATCC25922, Escherichia coli ATCC 25922, ESBLs(−)", "value": 4, "unit": "µg/mL"}, {"measurement": "MIC", "setting": "[9]; ATCC35218, Escherichia coli ATCC 35218, ESBLs(+)", "value": 1, "unit": "µg/mL"}, {"measurement": "MIC", "setting": "[9]; [18]", "value": 2, "unit": "µg/mL"}, {"measurement": "MIC", "setting": "[9]; [19]", "value": 2, "unit": "µg/mL"}, {"measurement": "MIC", "setting": "[9]; [20]", "value": 2, "unit": "µg/mL"}, {"measurement": "MIC", "setting": "[9]; [21]", "value": 1, "unit": "µg/mL"}, {"measurement": "MIC", "setting": "[9]; [22]", "value": 2, "unit": "µg/mL"}, {"measurement": "MIC", "setting": "[9]; [23]", "value": 64, "unit": "µg/mL"}, {"measurement": "MIC", "setting": "[9]; [24]", "value": 2, "unit": "µg/mL"}, {"measurement": "MIC", "setting": "[10]; ATCC19606, Acinetobacter baumannii ATCC 19606", "value": 32, "unit": "µg/mL"}, {"measurement": "MIC", "setting": "[10]; Acinetobacter baumannii 16-16", "value": "> 64", "unit": "µg/mL"}, {"measurement": "MIC", "setting": "[10]; Acinetobacter baumannii 16-33", "value": 32, "unit": "µg/mL"}, {"measurement": "MIC", "setting": "[11]; ATCC13636, read-out: Minimal Inhibitory Concentration (MIC)", "value": 16, "unit": "µg/mL"}, {"measurement": "MIC", "setting": "[12]; Proteus vulgaris, ATCC29905, Proteus vulgaris ATCC 29905, read-out: Minimal Inhibitory Concentration (MIC)", "value": 0.25, "unit": "µg/mL"}, {"measurement": "MIC", "setting": "[13]; ATCC43560, Enterobacter cloacae ATCC 43560", "value": 1, "unit": "µg/mL"}, {"measurement": "MIC", "setting": "[13]; [25]", "value": 16, "unit": "µg/mL"}, {"measurement": "MIC", "setting": "[14]; Salmonella enterica, TYPHI, read-out: Minimal Inhibitory Concentration (MIC)", "value": 4, "unit": "µg/mL"}]}]}
